Assay results: patent publication US10865216B2, “Tricyclic Gyrase inhibitors” (MERCK SHARP & DOHME CORP., priority 2012, dated 2020)
Converted amounts (≈) assume the structure as drawn.

Assays:
E. coli ATCC 25922 = assay: MIC, E. coli ATCC 25922; assay type: cell-based; conditions: E. coli; Alamar Blue read after overnight incubation at 35° C.
S. aureus ATCC 13709 = assay: MIC, S. aureus ATCC 13709; assay type: cell-based; conditions: S. aureus; Alamar Blue read after overnight incubation at 35° C.

MIC Ec (E. coli ATCC 25922) | MIC Sa (S. aureus ATCC 13709) | SMILES
≤0.5 µg/mL | ≤0.5 µg/mL | CNc1cc(F)cc2c1[nH]c1nc(Oc3cnc(N(C)C)nc3)nc(N3CC[C@@H](N)C3)c12 [Compound 4.207]
≤0.5 µg/mL | ≤0.5 µg/mL | CNc1cc(F)cc2c1[nH]c1nc(Oc3cnc(N(C)C)nc3)nc(N3CC4C(N)C4C3)c12 (centres unmarked) [Compound 4.208]
≤0.5 µg/mL | ≤0.5 µg/mL | CNc1cc(F)cc2c1[nH]c1nc(Oc3cnc(N(C)C)nc3)nc(N3CC(N)C4(CC4)C3)c12 (centres unmarked) [Compound 4.209]
1 µg/mL (≈ 2.05 µM) | ≤0.5 µg/mL | CNc1cc(F)cc2c1[nH]c1nc(Oc3cncc(-c4nnn(C)n4)c3)nc(N3CC4C(N)C4C3)c12 (centres unmarked) [Compound 4.210]
>16 µg/mL | 16 µg/mL (≈ 32.6 µM) | CNc1cc(F)cc2c1[nH]c1nc(Oc3cnc(N4CCOCC4)nc3)nc(N3CC4C(N)C4C3)c12 (centres unmarked) [Compound 4.211]
≤0.5 µg/mL | ≤0.5 µg/mL | CNc1cc(F)cc2c1[nH]c1nc(Oc3cnc(N4CCOCC4)nc3)nc(N3CC[C@@H](N)C3)c12 [Compound 4.212]
1 µg/mL (≈ 1.98 µM) | ≤0.5 µg/mL | CNc1cc(F)cc2c1[nH]c1nc(Oc3cnc(N4CCOCC4)nc3)nc(N3CC(N)C4(CC4)C3)c12 (centres unmarked) [Compound 4.213]
2 µg/mL (≈ 3.96 µM) | ≤0.5 µg/mL | CNc1cc(F)cc2c1[nH]c1nc(Oc3cnc(N4CCOCC4)nc3)nc(N3CCC4(CC4N)C3)c12 (centres unmarked) [Compound 4.214]
4 µg/mL (≈ 8.1 µM) | ≤0.5 µg/mL | CNc1cc(F)cc2c1[nH]c1nc(Oc3cnc(N4CCOCC4)nc3)nc(N3CCC(CN)C3)c12 (centres unmarked) [Compound 4.215]
≤0.5 µg/mL | ≤0.5 µg/mL | CNc1ncc(Oc2nc(N3C[C@H](N)C4(CC4)C3)c3c(n2)[nH]c2c(NC)cc(F)cc23)cn1 [Compound 4.216]
≤0.5 µg/mL | ≤0.5 µg/mL | CNc1ncc(Oc2nc(N3CC4C(N)C4C3)c3c(n2)[nH]c2c(NC)cc(F)cc23)cn1 (centres unmarked) [Compound 4.218]
≤0.5 µg/mL | ≤0.5 µg/mL | CNc1ncc(Oc2nc(N3CC[C@@H](N)C3)c3c(n2)[nH]c2c(NC)cc(F)cc23)cn1 [Compound 4.219]
≤0.5 µg/mL | ≤0.5 µg/mL | CNc1ncc(Oc2nc(N3CCC4(CC4N)C3)c3c(n2)[nH]c2c(NC)cc(F)cc23)cn1 (centres unmarked) [Compound 4.220]
2 µg/mL (≈ 4.45 µM) | ≤0.5 µg/mL | CNc1ncc(Oc2nc(N3CC4CC(N)C4C3)c3c(n2)[nH]c2c(NC)cc(F)cc23)cn1 (centres unmarked) [Compound 4.221]
≤0.5 µg/mL | ≤0.5 µg/mL | CNc1cc(F)cc2c1[nH]c1nc(Oc3cnc(NC4CC4)nc3)nc(N3CC[C@@H](N)C3)c12 [Compound 4.222]
≤0.5 µg/mL | ≤0.5 µg/mL | CNc1cc(F)cc2c1[nH]c1nc(Oc3cnc(NC4CC4)nc3)nc(N3CC4C(N)C4C3)c12 (centres unmarked) [Compound 4.223]
>16 µg/mL | 1 µg/mL (≈ 2.16 µM) | CNc1cc(F)cc2c1[nH]c1nc(Oc3cnc(-c4nn[nH]n4)nc3)nc(N3CC[C@@H](N)C3)c12 [Compound 4.224]
2 µg/mL (≈ 4.47 µM) | ≤0.5 µg/mL | CNc1cc(F)cc2c1[nH]c1nc(Oc3cnc4c(c3)ncn4C)nc(N3CC[C@@H](N)C3)c12 [Compound 4.225]
2 µg/mL (≈ 4.22 µM) | ≤0.5 µg/mL | CNc1cc(F)cc2c1[nH]c1nc(Oc3cnc4c(c3)ncn4C)nc(N3CC4CC(N)C4C3)c12 (centres unmarked) [Compound 4.226]
2 µg/mL (≈ 3.84 µM) | ≤0.5 µg/mL | CNc1cc(F)cc2c1[nH]c1nc(Oc3cnc(N4CCN(C(C)=O)CC4)nc3)nc(N3CC[C@@H](N)C3)c12 [Compound 4.229]

MIC Ec (E. coli ATCC 25922) | MIC Sa (S. aureus ATCC 13709) | SMILES
>16 µg/mL | 32 µg/mL (≈ 76.1 µM) | CNc1cc(F)cc2c1[nH]c1nc(Oc3ccnnc3)nc(N3CC(N)C4(CC4)C3)c12 (centres unmarked) [Compound 4.230]
≤0.5 µg/mL | ≤0.5 µg/mL | CNc1cc(F)cc2c1[nH]c1nc(Oc3cnc(C(C)C)nc3)nc(N3CC4C(N)C4C3)c12 (centres unmarked) [Compound 4.232]
1 µg/mL (≈ 2.16 µM) | ≤0.5 µg/mL | CNc1cc(F)cc2c1[nH]c1nc(Oc3cnc(C(C)C)nc3)nc(N3CC4CC(N)C4C3)c12 (centres unmarked) [Compound 4.234]
≤0.5 µg/mL | ≤0.5 µg/mL | CNc1cc(F)cc2c1[nH]c1nc(Oc3cnc(C(C)C)nc3)nc(N3CCC4(CC4N)C3)c12 (centres unmarked) [Compound 4.235]
≤0.5 µg/mL | ≤0.5 µg/mL | CNc1cc(F)cc2c1[nH]c1nc(Oc3cncc(C(N)=O)c3)nc(N3CC4CC(N)C4C3)c12 (centres unmarked) [Compound 4.236]
2 µg/mL (≈ 4.46 µM) | ≤0.5 µg/mL | CNc1cc(F)cc2c1[nH]c1nc(Oc3cncc(C(N)=O)c3)nc(N3CC4C(N)C4C3)c12 (centres unmarked) [Compound 4.237]
≤0.5 µg/mL | ≤0.5 µg/mL | CNc1cc(F)cc2c1[nH]c1nc(Oc3cnc(C4CC4)nc3)nc(N3CC4CC(N)C4C3)c12 (centres unmarked) [Compound 4.240]
≤0.5 µg/mL | ≤0.5 µg/mL | CNc1cc(F)cc2c1[nH]c1nc(Oc3cnc(C4CC4)nc3)nc(N3CC4C(N)C4C3)c12 (centres unmarked) [Compound 4.241]
≤0.5 µg/mL | ≤0.5 µg/mL | CNc1cc(F)cc2c1[nH]c1nc(Oc3cnc(C4CC4)nc3)nc(N3CC4(CCC4N)C3)c12 (centres unmarked) [Compound 4.244]
≤0.5 µg/mL | ≤0.5 µg/mL | CNc1cc(F)cc2c1[nH]c1nc(Oc3cnc(C4CC4)nc3)nc(N3CC4CC4(CN)C3)c12 (centres unmarked) [Compound 4.246]
≤0.5 µg/mL | ≤0.5 µg/mL | CNc1cc(F)cc2c1[nH]c1nc(Oc3cnc(C4CC4)nc3)nc(N3CC4C(CN)C4C3)c12 (centres unmarked) [Compound 4.249]
≤0.5 µg/mL | ≤0.5 µg/mL | CNc1cc(F)cc2c1[nH]c1nc(Oc3cnc(C4CC4)nc3)nc(N3CC4CCNC4C3)c12 (centres unmarked) [Compound 4.250]
≤0.5 µg/mL | ≤0.5 µg/mL | CNc1cc(F)cc2c1[nH]c1nc(Oc3cnc(C4CC4)nc3)nc(N3CC4CCC(N)C4C3)c12 (centres unmarked) [Compound 4.251]
>16 µg/mL | >16 µg/mL | CNc1cc(F)cc2c1[nH]c1nc(Oc3cnc(C4CC4)nc3)nc(C3CCC4(CC3)NC(=O)NC4=O)c12 (centres unmarked) [Compound 4.252]
≤0.5 µg/mL | ≤0.5 µg/mL | CNc1cc(F)cc2c1[nH]c1nc(Oc3cnc(C4CC4)nc3)nc(N3CC4CCC(CN)C4C3)c12 (centres unmarked) [Compound 4.253]
≤0.5 µg/mL | ≤0.5 µg/mL | CCc1ncc(Oc2nc(N3CC4C(N)C4C3)c3c(n2)[nH]c2c(NC)cc(F)cc23)cn1 (centres unmarked) [Compound 4.258]
≤0.5 µg/mL | ≤0.5 µg/mL | CCc1ncc(Oc2nc(N3CC(N)C4(CC4)C3)c3c(n2)[nH]c2c(NC)cc(F)cc23)cn1 (centres unmarked) [Compound 4.259]
1 µg/mL (≈ 2.23 µM) | ≤0.5 µg/mL | CCc1ncc(Oc2nc(N3CC4CC4(CN)C3)c3c(n2)[nH]c2c(NC)cc(F)cc23)cn1 (centres unmarked) [Compound 4.261]
≤0.5 µg/mL | ≤0.5 µg/mL | CCc1ncc(Oc2nc(N3CCC(N)C3)c3c(n2)[nH]c2c(NC)cc(F)cc23)cn1 (centres unmarked) [Compound 4.262]
≤0.5 µg/mL | ≤0.5 µg/mL | CCc1ncc(Oc2nc(N3CCC4(CC4N)C3)c3c(n2)[nH]c2c(NC)cc(F)cc23)cn1 (centres unmarked) [Compound 4.263]
